Measurements reported in patent publication US7713963B2, “Acylated indanyl amines and their use as pharmaceuticals” (sanofi-aventis Deutschland GmbH, priority 2001, dated 2010).
Like-named read-outs stand apart in the source and are kept apart here.

Tested on: eNOS promoter
Assay: Activation of eNOS transcription (eNOS promoter-luciferase reporter gene assay)
Assay type: cell-based, human
Conditions: 18 h incubation; for maximal fold induction: maximum transcription induction ratio (luciferase with compound / solvent alone), read-out: TIR (max); for EC50: EC50 of transcription induction ratio, determined graphically, human endothelial cell line, read-out: EC-50
Experimental: Measurement of activation of eNOS transcription Activation of eNOS transcription was measured as described in detail in Li et al. “Activation of protein kinase C alpha and/or epsilon enhances transcription of the human endothelial nitric oxide synthase gene”, Mol. Pharmacol. 1998; 53: 630-637. Briefly, a 3.5 kB long fragment 5′ of the starting codon of the eNOS gene was cloned, sequenced and cloned in firefly luciferase expression plasmids to monitor activation of the eNOS promoter by reporter gene activity. A human endothelial cell line stable transfected and expressing this promoter-reporter construct was used for compound testing. Cells were incubated for 18 h with compounds. All compounds were dissolved in sterile DMSO. A final concentration of 0.5% DMSO in complete medium was allowed. Induction of reporter gene expression in these cells was measured using a standard luciferase assay system (Promega, Cat. No E150) according to the manufacturer's instructions. Luciferase induction in cells incubated with compounds were compared to those incubated with solvent alone. The ratio of both activities (transcription induction ratio, TIR) was plotted as a function of compound concentration. […] EC50 values of transcription induction ratios as a function of compound concentration were determined graphically.

[1] = Homo sapiens, Endothelial cell, 18 h

SMILES	maximal fold induction (Homo sapiens, 18 h)	EC50 [1]	EC50
O=C(NC1Cc2ccccc2C1)c1ccc(C(F)(F)F)nc1 [Compound 236, N-INDAN-2-YL-6-TRIFLUOROMETHYL-NICOTINAMIDE]	2	22 µM	
O=C(NC1Cc2ccccc2C1)c1ccc(Cl)nc1 [Compound 387, 6-CHLORO-N-INDAN-2-YL-NICOTINAMIDE]	2.6	32 µM	
Cc1sccc1C(=O)NC1Cc2ccccc2C1 [Compound 365, 2-METHYL-THIOPHENE-3-CARBOXYLIC ACID INDAN-2-YLAMIDE]	3	0.25 µM	
O=C(NC1Cc2ccccc2C1)c1cccc(Oc2ccccc2)c1 [Compound 286, N-INDAN-2-YL-3-PHENOXY-BENZAMIDE]	2.6	26 µM	
O=C(NC1Cc2ccc(F)cc2C1)c1ccc(F)cc1 (stereo not shown) [Compound 4, 4-FLUORO-N-(5-FLUORO-INDAN-2-YL)-BENZAMIDE]	2.95	3 µM	
Nc1c(C(=O)NC2Cc3ccccc3C2)cnn1-c1ccccn1 [Compound 386A, 5-AMINO-1-PYRIDIN-2-YL-1H-PYRAZOLE-4-CARBOXYLIC ACID INDAN-2-YLAMIDE]	3.3	5.1 µM	
Nc1ccccc1C(=O)NC1Cc2ccccc2C1 [Compound 73, 2-AMINO-N-INDAN-2-YL-BENZAMIDE]	4	0.7 µM	
Cc1cc(C(=O)NC2Cc3ccccc3C2)c(C)s1 [Compound 368, 2,5-DIMETHYL-THIOPHENE-3-CARBOXYLIC ACID INDAN-2-YLAMIDE]	2.5	17 µM	
Cc1ccc(C(=O)NC2Cc3ccccc3C2)cc1C [Compound 29, 3,4-DIMETHYL-N-INDAN-2-YL-BENZAMIDE]	3.8	0.8 µM	
O=C(NC1Cc2ccccc2C1)c1ccc(Br)cc1F [Compound 350, 4-BROMO-2-FLUORO-N-INDAN-2-YL-BENZAMIDE]	2.9	0.523 µM	
Cc1c(C(=O)NC2Cc3ccccc3C2)oc2ccccc12 [Compound 319, 3-METHYL-BENZOFURAN-2-CARBOXYLIC ACID INDAN-2-YLAMIDE]	2.4	25 µM	
O=C(NC1Cc2ccccc2C1)c1ccoc1 [Compound 296, FURAN-3-CARBOXYLIC ACID INDAN-2-YLAMIDE]	2.5	13 µM	
O=C(NC1Cc2ccccc2C1)c1ccc(Br)cc1Cl [Compound 317, 4-BROMO-2-CHLORO-N-INDAN-2-YL-BENZAMIDE]	2.9	0.197 µM	
O=C(NC1Cc2cc(Br)c(Br)cc2C1)c1ccc(F)cc1 [Compound 397, N-(5,6-DIBROMO-INDAN-2-YL)-4-FLUORO-BENZAMIDE]	1.7	30 µM	
O=C(NC1Cc2ccccc2C1)c1cccc(Cl)c1Cl [Compound 276, 2,3-DICHLORO-N-INDAN-2-YL-BENZAMIDE]	3	0.157 µM	
CCCc1c(C(=O)NC2Cc3ccccc3C2)cnn1-c1ccc(Cl)cc1 [Compound 322, 1-(4-CHLORO-PHENYL)-5-PROPYL-1H-PYRAZOLE-4-CARBOXYLIC ACID INDAN-2-YLAMIDE]	2.3	23 µM	
O=C(NC1Cc2ccccc2C1)c1cccc(C(=O)c2ccccc2)c1 [Compound 287, 3-BENZOYL-N-INDAN-2-YL-BENZAMIDE]	2.9	13 µM	
Cc1ccc(C(=O)Nc2cccc(C(=O)NC3Cc4ccccc4C3)c2)cc1 [Compound 381, 3-(4-METHYL-BENZOYLAMINO)-BENZOIC ACID INDAN-2-YLAMIDE]	2.5	12 µM	

SMILES	maximal fold induction (Homo sapiens, 18 h)	EC50 [1]	EC50
CC(=O)Nc1cccc(C(=O)NC2Cc3ccccc3C2)c1Cl [Compound 267, 3-ACETYLAMINO-2-CHLORO-N-INDAN-2-YL-BENZAMIDE]	2.5	2.8 µM	
COc1c(Br)cccc1C(=O)NC1Cc2ccccc2C1 [Compound 253, 3-BROMO-N-INDAN-2-YL-2-METHOXY-BENZAMIDE]	2.2	13 µM	
O=C(NC1Cc2cccc(C(F)(F)F)c2C1)c1ccc(F)cc1 (stereo not shown) [Compound 439, 4-FLUORO-N-(4-TRIFLUOROMETHYL-INDAN-2-YL)-BENZAMIDE]	2.6	8.9 µM	
Cc1ccc(C)n1-c1ccc(C(=O)NC2Cc3ccccc3C2)cc1 [Compound 327, 4-(2,5-DIMETHYL-PYRROL-1-YL)-N-INDAN-2-YL-BENZAMIDE]	2.5	2.6 µM	
O=C(NC1Cc2ccccc2C1)c1ccc(Oc2ccccc2)cc1 [Compound 32, 4-PHENOXY-N-INDAN-2-YL-BENZAMIDE]	4	1.7 µM	
O=C(NC1Cc2ccccc2C1)c1ccc(-n2ccnc2)cc1 [Compound 328, 4-IMIDAZOL-1-YL-N-INDAN-2-YL-BENZAMIDE]	2.4	24 µM	
O=C(NC1Cc2ccccc2C1)c1ccc2ccccc2c1 [Compound 295, NAPHTHALENE-2-CARBOXYLIC ACID INDAN-2-YLAMIDE]	2.4	0.846 µM	
Cc1c(C(=O)NC2Cc3ccccc3C2)cnn1-c1ccc(Cl)cc1 [Compound 341, 1-(4-CHLORO-PHENYL)-5-METHYL-1H-PYRAZOLE-4-CARBOXYLIC ACID INDAN-2-YLAMIDE]	2.5	22 µM	
Cc1cc(C(=O)NC2Cc3ccccc3C2)c(C)n1Cc1ccncc1 [Compound 230, 2,5-DIMETHYL-1-PYRIDIN-4-YLMETHYL-1H-PYRROLE-3-CARBOXYLIC ACID INDAN-2-YLAMIDE]	4	0.82 µM	
O=C(NC1Cc2ccccc2C1)c1cc(Cl)ccc1F [Compound 330, 5-CHLORO-2-FLUORO-N-INDAN-2-YL-BENZAMIDE]	2.2	12 µM	
O=C(NC1Cc2ccc(OS(=O)(=O)c3ccccc3)cc2C1)c1ccc(F)cc1 (stereo not shown) [Compound 405, BENZENESULFONIC ACID 2-(4-FLUOROBENZOYLAMINO)-INDAN-5-YL ESTER]	2.8	30 µM	
Cc1ccc(C(=O)NC2Cc3ccccc3C2)c(O)c1 [Compound 22, 2-HYDROXY-N-INDAN-2-YL-4-METHYL-BENZAMIDE]	2.1	7 µM	
O=C(NC1Cc2ccccc2C1)c1ccc(OCC(F)(F)F)cc1 [Compound 386B, N-INDAN-2-YL-4-(2,2,2-TRIFLUORO-ETHOXY)-BENZAMIDE]	2.5	0.309 µM	
Cc1cccc2c1CC(NC(=O)c1ccc(F)cc1)C2 (single isomer, unassigned; (-)) [Compound 1a, (−)-4-Fluoro-N-(4-methyl-indan-2-yl)-benzamide]	2.8		6 µM
COC(=O)c1cccc(C(=O)NC2Cc3ccccc3C2)c1 [Compound 243, N-INDAN-2-YL-ISOPHTHALAMIC ACID METHYL ESTER]	2.8	0.11 µM	
CCOc1cc(C(=O)NC2Cc3ccccc3C2)ccc1OC [Compound 25, 3-ETHOXY-4-METHOXY-N-INDAN-2-YL-BENZAMIDE]	2.7	12 µM	
CCOc1ccc(C(=O)NC2Cc3ccccc3C2)c(OC(C)=O)c1 [Compound 6, ACETIC ACID 5-ETHOXY-2-(INDAN-2-YL-CARBAMOYL)-PHENYL ESTER]	2.55	1.2 µM	
